Results reported in patent publication US20190382432A1 (Synbias Pharma AG, priority 2013, published 2019).
Where a name gives a salt, the structure may show the parent alone. Marks after values point to notes of the source that are not given here.

How the values were obtained:
Assay type in all cases: physicochemical
[1] = Thermostability on storage at 25, 40 and 100 °C per ICH Q1A (R2), HPLC; conditions: 25, 40, 100 °C; data not shown
Experimental: HPLC and GC analyses were performed according to standard protocols.
The testing was performed as described in the ICH guidelines (cf. inter alia ICH Guideline Q1A (R2)).

[2] = Hygroscopic capacity: water content by Karl-Fischer titration after exposure to temperature and relative humidity; conditions: 25 or 40 °C, 40-90% rh; data not shown
Experimental: Coulometric Karl-Fischer titration (KFT; for determining the water content) was performed with an external drying oven (Metrohm 707 KF; operated at 140° C. with N2 purge). The samples were precisely weighed on an analytical balance (10^−5 g).
The testing was performed as described in the ICH guidelines.

[3] = Thermostability under stress conditions (storage at 100 °C for one month), HPLC
Experimental: Sample S was prepared according to the present invention, as described in Example 3 above. Sample M1 was prepared according to Example 1 of WO 2012/163508 A1, as described in Example 7 above. Finally, Sample M2 was prepared according to Example 2 of WO 2012/163508 A1, as described in Example 7 above.
The samples were exposed to a temperature of 100° C. for the time period (in weeks) indicated. The testing was performed as described in the ICH Guideline Q1A (R2) (cf. above). The amount of the degradation product (i.e. doxorubicinone) produced as well as those of various impurities (i.e., doxorubicin and four different impurities of yet unknown identity; all given in % (w/w); “n.d.”=not determined) was determined by HPCL analysis (“LT”=less than).

[4] = Particle size distribution by laser diffraction analysis (Mastersizer 2000); conditions: wet laser diffraction in acetone; listed as Sample 3, hydrochloride
Experimental: Laser diffraction analysis was performed in form of wet laser diffraction in acetone: 1750 rpm, 3×20 s cycle time, 60 s background time, without sonication, and 5 min stirring time using a Mastersizer 2000 Particle Size Analyzer (Malvern Instruments Ltd., Malvern, UK) according to the manufacturer's instructions.

COc1cccc2c1C(=O)c1c(O)c3c(c(O)c1C2=O)C[C@@](O)(C(=O)CO)C[C@@H]3O[C@H]1C[C@H](N)[C@H](O)[C@H](C)O1 [S, epirubicin hydrochloride]
Thermostability compared with the Example 1 monohydrate (TABLE 5-1), in words [1]: almost identical results | Hygroscopic capacity compared with the Example 1 monohydrate (TABLE 6-1), in words [2]: almost identical results | Doxorubicin (NMT 1%) ([3]; 0 weeks): 0.29 % (w/w) | Doxorubicinone (Aglycone) (NMT 1%) ([3]; 0 weeks): < 0.05 % (w/w) | Total Impurities (NMT 2%) ([3]; 0 weeks): 0.30 % (w/w) | Doxorubicin (NMT 1%) ([3]; 1 week, hydrochloride): 0.28 % (w/w) | Doxorubicinone (Aglycone) (NMT 1%) ([3]; 1 week, hydrochloride): 0.39 % (w/w) | Total Impurities (NMT 2%) ([3]; 1 week, hydrochloride): 0.80 % (w/w) | Unknown impurity RRT 1.7 (NMT 0.15%) ([3]; 1 week, hydrochloride): 0.08 % (w/w) | Doxorubicin (NMT 1%) ([3]; 2 weeks): 0.32 % (w/w) | Doxorubicinone (Aglycone) (NMT 1%) ([3]; 2 weeks, hydrochloride): 0.40 % (w/w) | Total Impurities (NMT 2%) ([3]; 2 weeks, hydrochloride): 0.90 % (w/w) | Unknown impurity RRT 1.2 (NMT 0.15%) ([3]; 2 weeks, hydrochloride): 0.07 % (w/w) | Unknown impurity RRT 1.6 (NMT 0.15%) ([3]; 2 weeks, hydrochloride): 0.05 % (w/w) | Unknown impurity RRT 1.7 (NMT 0.15%) ([3]; 2 weeks, hydrochloride): 0.09 % (w/w) | Doxorubicin (NMT 1%) ([3]; 3 weeks, hydrochloride): 0.32 % (w/w) | Doxorubicinone (Aglycone) (NMT 1%) ([3]; 3 weeks, hydrochloride): 0.46 % (w/w) | Total Impurities (NMT 2%) ([3]; 3 weeks, hydrochloride): 1.10 % (w/w) | Unknown impurity RRT 1.2 (NMT 0.15%) ([3]; 3 weeks, hydrochloride): 0.08 % (w/w) | Unknown impurity RRT 1.6 (NMT 0.15%) ([3]; 3 weeks, hydrochloride): 0.12 % (w/w) | Unknown impurity RRT 1.7 (NMT 0.15%) ([3]; 3 weeks, hydrochloride): 0.13 % (w/w) | Doxorubicin (NMT 1%) ([3]; 4 weeks): 0.33 % (w/w) | Doxorubicinone (Aglycone) (NMT 1%) ([3]; 4 weeks, hydrochloride): 0.49 % (w/w) | Total Impurities (NMT 2%) ([3]; 4 weeks, hydrochloride): 1.3* % (w/w) | Total amount of unknown impurities ([3]; 4 weeks, hydrochloride): 0.48 % (w/w) | Unknown impurity RRT 1.1 (NMT 0.15%) ([3]; 4 weeks, hydrochloride): 0.06 % (w/w) | Unknown impurity RRT 1.2 (NMT 0.15%) ([3]; 4 weeks, hydrochloride): 0.11 % (w/w) | Unknown impurity RRT 1.6 (NMT 0.15%) ([3]; 4 weeks, hydrochloride): 0.15 % (w/w) | Unknown impurity RRT 1.7 (NMT 0.15%) ([3]; 4 weeks, hydrochloride): 0.15 % (w/w) | Degradation under stress conditions compared with M1 and M2, in words ([3]; one month): less pronounced degradation | D(v/0.5), mean diameter based on the volume of the particles [4]: 25.25 μm
